Reference: ChEMBL document CHEMBL3352400, “4-Functionalized 1,3-diarylpyrazoles bearing 6-aminosulfonylbenzothiazole moiety as potent inhibitors of carbonic anhydrase isoforms hCA I, II, IX and XII” (Bioorg Med Chem, 2014)

Key:
[1] = target: Carbonic anhydrase 9 (Homo sapiens, UniProt Q16790); experiment: Inhibition of human carbonic anhydrase 9 by stopped flow CO2 hydrase assay method
[2] = target: Carbonic anhydrase 1 (Homo sapiens, UniProt P00915); experiment: Inhibition of human carbonic anhydrase 1 by stopped flow CO2 hydrase assay method
Chain of Carbonic anhydrase 1 (P00915 whole entry): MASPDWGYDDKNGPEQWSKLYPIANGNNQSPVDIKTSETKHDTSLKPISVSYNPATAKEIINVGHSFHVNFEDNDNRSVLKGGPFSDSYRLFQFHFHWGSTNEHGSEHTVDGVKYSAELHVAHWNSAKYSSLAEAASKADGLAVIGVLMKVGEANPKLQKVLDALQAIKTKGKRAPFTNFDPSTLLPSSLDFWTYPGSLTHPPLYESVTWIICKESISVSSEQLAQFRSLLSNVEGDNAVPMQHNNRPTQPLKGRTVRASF

[3] = target: Carbonic anhydrase 12 (Homo sapiens, UniProt O43570); experiment: Inhibition of human carbonic anhydrase 12 by stopped flow CO2 hydrase assay method
Chain of Carbonic anhydrase 12 (O43570 whole entry): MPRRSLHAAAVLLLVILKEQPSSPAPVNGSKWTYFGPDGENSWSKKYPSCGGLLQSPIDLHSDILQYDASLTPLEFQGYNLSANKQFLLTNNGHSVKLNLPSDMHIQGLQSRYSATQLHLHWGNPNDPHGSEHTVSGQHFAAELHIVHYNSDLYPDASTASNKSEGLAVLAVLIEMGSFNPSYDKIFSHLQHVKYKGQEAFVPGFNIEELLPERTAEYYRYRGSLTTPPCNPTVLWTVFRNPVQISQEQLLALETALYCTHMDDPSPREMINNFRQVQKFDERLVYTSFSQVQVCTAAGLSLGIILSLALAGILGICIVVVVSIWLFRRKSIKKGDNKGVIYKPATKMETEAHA

SMILES	Ki [1] [nM]	Ki [2] [nM]	Ki [3] [nM]
N#Cc1cn(-c2nc3ccc(S(N)(=O)=O)cc3s2)nc1-c1ccc(F)cc1	739	–	–
COc1ccc(-c2nn(-c3nc4ccc(S(N)(=O)=O)cc4s3)cc2C=O)cc1	229	–	–
N#Cc1cn(-c2nc3ccc(S(N)(=O)=O)cc3s2)nc1-c1ccc([N+](=O)[O-])cc1	854	> 50000	–
NS(=O)(=O)c1ccc2nc(-n3cc(C=O)c(-c4ccc([N+](=O)[O-])cc4)n3)sc2c1	2110	–	–
NS(=O)(=O)c1ccc2nc(-n3cc(C=O)c(-c4ccccc4)n3)sc2c1	1750	–	–
Cc1ccc(-c2nn(-c3nc4ccc(S(N)(=O)=O)cc4s3)cc2C=O)cc1	699	–	–
NS(=O)(=O)c1ccc2nc(-n3cc(C=O)c(-c4ccc(F)cc4)n3)sc2c1	–	–	> 10000
COc1ccc(-c2nn(-c3nc4ccc(S(N)(=O)=O)cc4s3)cc2C#N)cc1	111	> 50000	–
COc1ccc(-c2nn(-c3nc4ccc(S(N)(=O)=O)cc4s3)cc2C(=O)O)cc1	842	–	–
NS(=O)(=O)c1ccc2nc(-n3cc(C=O)c(-c4ccc(Cl)cc4)n3)sc2c1	1690	–	–
NS(=O)(=O)c1ccc2nc(-n3cc(C(=O)O)c(-c4ccccc4)n3)sc2c1	752	–	–
NS(=O)(=O)c1ccc2nc(-n3cc(C(=O)O)c(-c4ccc(Cl)cc4)n3)sc2c1	2.8	–	–

Continued, values first:

Ki [1] [nM]	Ki [2] [nM]	Ki [3] [nM]	SMILES
186	> 50000	–	Cc1ccc(-c2nn(-c3nc4ccc(S(N)(=O)=O)cc4s3)cc2C#N)cc1
91.6	> 50000	–	COc1ccc(-c2nn(-c3nc4ccc(S(N)(=O)=O)cc4s3)cc2/C=N/O)cc1
152	–	–	NS(=O)(=O)c1ccc2nc(-n3cc(/C=N/O)c(-c4ccc(Cl)cc4)n3)sc2c1
109	–	–	Cc1ccc(-c2nn(-c3nc4ccc(S(N)(=O)=O)cc4s3)cc2C(=O)O)cc1
60.4	–	–	NS(=O)(=O)c1ccc2nc(-n3cc(C(=O)O)c(-c4ccc([N+](=O)[O-])cc4)n3)sc2c1
62.4	–	–	NS(=O)(=O)c1ccc2nc(-n3cc(C(=O)O)c(-c4ccc(F)cc4)n3)sc2c1
134	–	–	Cc1ccc(-c2nn(-c3nc4ccc(S(N)(=O)=O)cc4s3)cc2/C=N/O)cc1
81.6	–	–	N#Cc1cn(-c2nc3ccc(S(N)(=O)=O)cc3s2)nc1-c1ccccc1
224	–	–	NS(=O)(=O)c1ccc2nc(-n3cc(/C=N/O)c(-c4ccc(F)cc4)n3)sc2c1
224	> 50000	–	N#Cc1cn(-c2nc3ccc(S(N)(=O)=O)cc3s2)nc1-c1ccc(Cl)cc1
114	–	–	NS(=O)(=O)c1ccc2nc(-n3cc(/C=N/O)c(-c4ccccc4)n3)sc2c1
